Assay results as given in patent US8609065B2, “Molecules for targeting compounds to various selected organs, tissues or tumor cells” (Prosensa Technologies B.V., priority 2007, dated 2013).
Peptide text beside a SMILES is read from it.

Columns and labels:
[1] = In vivo targeting to brain cells, Cy5-labeled peptide imaging; details: 7 nmol intravenously, nude mouse
Method: Peptide THRPPMWSPVWP (SEQ ID NO: 1) was labeled with a Cy5 fluorescent label and 7 nmol was injected intravenously into the tail vein of a nude mouse. Pictures were taken with a Maestro imaging system using the filters for Cy5 detection.
On the left side of FIGS. 1A and 1B the detected Cy5 pattern is shown separately in red for quantitation. The numbers on the left side indicate the amount of detected Cy5 label.

muscle cells = assay: Selective uptake by muscle cells (summary statement); format: cell-based
Text: Therefore, these may be used for targeting diagnostic moieties or biologically active moieties to an organ or tissue or cell type of interest, especially to muscle cells or across the blood brain barrier to brain cells, to neuronal cells or to tumor cells of neuronal or neuroectodermal origin.

KM109 cells = assay: Uptake of fluorescently labeled variants of THRPPMWSPVWP on KM109 cells; format: cell-based; details: fluorescently labeled peptide
Method: Several variants of peptide THRPPMWSPVWP (SEQ ID NO: 1) (see Table 2) were selected, synthesized with a fluorescent label and tested for uptake on KM109 cells. Peptides 3, 7, 8, 9, 10, and 11 were tested. […] The other peptides depicted in the table below are yet to be tested for uptake on KM109 cells. Moreover, all peptides are to be tested for uptake on neuroblastoma cells in a similar fashion.

[2] = test system: N1E-115 mouse neuroblastoma cells; assay: In vitro uptake of FAM-labeled peptides into neuroblastoma cells (fluorescence microscopy); format: cell-based; details: FAM-labeled peptide, N1E-115 cells
Method: A selection of peptides was synthesized and provided with a fluorescent label (FAM) and screened for uptake on mouse neuroblastoma cells in vitro.
N1E-115 mouse neuroblastoma cells were incubated with the FAM-labeled peptides and photographed with an inverted fluorescence microscope, without previous fixation.

In the case of `CSCC[C@H](NC(=O)[C@@H]1CCCN1C(=O)[C@@H]1CCCN1C(=O)[C@H](CCCNC(=N)N)NC(=O)[C@H](Cc1c[nH]cn1)NC(=O)[C@@H](N)[C@@H](C)O)C(=O)N[C@@H](Cc1c[nH]c2ccccc12)C(=O)N[C@@H](CO)C(=O)N1CCC[C@H]1C(=O)N[C@H](C(=O)N[C@@H](Cc1c[nH]c2ccccc12)C(=O)N1CCC[C@H]1C(=O)O)C(C)C` [THRPPMWSPVWP] (H-THRPPMWSPVWP-OH; N-terminus and C-terminus assumed), the “crossing of the blood brain barrier” value [1] is reported as “able to cross the blood brain barrier” and the “Cy5 signal in the brain” value ([1]; 20 minutes after injection) is reported as “clear signal could be detected in the brain”.
For HRPPMWSPVW, the “selective uptake by muscle cells” value (muscle cells) was “selectively taken up by muscle cells” and the “uptake on KM109 cells” value (KM109 cells) was “taken up, although at a lower level”.
With HRPPMWSPVWP the “selective uptake by muscle cells” value (muscle cells) was “selectively taken up by muscle cells” and the “uptake on KM109 cells” value (KM109 cells) was “taken up very efficiently”.
For LPWKPLG, the “intracellular staining pattern after uptake” value [2] was “uniform staining of the cytoplasm as well as the nucleus” and the “uptake by the neuroblastoma cells” value ([2]; inverted fluorescence microscope, no fixation) was “efficiently taken up”.
In the case of THRPPMWS, the “selective uptake by muscle cells” value (muscle cells) is reported as “selectively taken up by muscle cells” and the “uptake on KM109 cells” value (KM109 cells) is reported as “taken up, although at a lower level”.
